Like-named read-outs stand apart in the source and are kept apart here.
What was measured:
cerebellar granule cells = assay: Protection of cerebellar granule cells against Fe2+-induced oxidative damage; type: cell-based, rats; settings: Rattus norvegicus, 100 µM ferrous chloride
Procedure: The cyclic nitrones were tested for their ability to protect primary cultures of cerebellar granule cells against oxidative injury induced by treatment with Fe^2+. Cerebellar granule cell cultures were prepared from 8 day old rats as previously described. Levi, G., Aloisi, F., Ciotti, M.T., Thangnipon, W., Kingsbury, A., and Balazs, R. (1989) In: A Dissection and Tissue Culture Manual of the Nervous System (Shahar, A., de Vellis, J., Vernadakis, A., and Haber, B., eds.) Alan R. Liss, Inc. New York, NY, pp. 211-214. Briefly, 8-10 cerebella were removed and placed in a Crebs-Ringer bicarbonate medium supplemented with BSA and MgSO4. Cerebella were finely chopped and digested with a trypsin/Krebs-Ringer solution. Cells were then dispersed by trituration in Krebs-Ringer containing DNase, MgSO4 and trypsin inhibitor followed by plating at a density of 1x10^6 cells/well in poly-1-lysine coated plate in MEM/10% fetal bovine serum/KCl/glutamine/gentamicin. Media was replaced at 24 hours and cytosine arabinoside added. Experiments were conducted with cells 8-10 days in vitro.
For oxidation studies the media was removed and replaced with Na^+ free Locke's solution (154.6 mM N-methyl-D-glucamine, 5.6 mM KCl, 2.3 mM CaCl2, 1 mM MgCl2, 3.6 mM NaHCO3, and 5 mM HEPES, pH 7.3) with the omission of glucose. The nitrones were added in either Locke's solution or in 20% β-cyclodextrins and allowed to incorporate into the cells for 30 min. At this time 20 µl of a 5 mM stock solution of ferrous chloride was added for a final concentration of 100 µM. After 45 min the media was removed and added to 1.5 ml of TBA/TCA (2:1) with 25 µl of 2% BHT and TBARS determined as described above. The absorbance of the control cells (no iron) was subtracted from the iron treated cells and this value taken as the denominator to determine the concentration of nitrone required to inhibit oxidation by 50%.
Fresh MEM media was added to the cells along with 100 µl of MTT. After 4 hrs, 1 ml of cold isopropanol/0.04 N HCl was added, the cells scraped, mixed well and transferred to 13 x 100 mm glass test tubes. The absorbance resulting from mitochondrial reduction of the MTT (570 nm minus 630 nm) was measured as an assessment of viability. The % cell death was determined by comparison to the absorbance of cells to which no iron was added. The difference between the iron-treated and control cells was taken as 100% and the concentration of nitrone to prevent the loss of MTT reduction capability (expressed in Table II as viability) by 50% was used as the IC50.

[1] = Hydroxyl radical trapping (inhibition of the •OH-dependent bleaching of p-NDA); type: biochemical; settings: IC50 for hydroxyl radical trapping in vitro
Procedure: Cyclic nitrones were evaluated for •OH trapping activity by a variety of tests. The primary assay was dependent upon the ability of the compounds to inhibit the •OH-dependent bleaching of p-NDA. Bors, W., Michel, C., and Saran, M. (1979) J. Biochem. 95, 621-627. The p-NDA was prepared at 1 mM in 50 mM NaCl, pH 7.0. The hydroxyl radical was generated using Fenton chemistry (Fe^2+/H2O2). FeCl2 is dissolved in N2 purged, double distilled H2O to a final concentration of 2.5 mM. H2O2 was prepared from a 30% stock solution (8.8 M) at 1.25 mM in the buffer. Test compounds were solubilized in buffer or ethanol at a concentration of 1 M or 5 M, depending upon solubility.
Assay mixtures in glass cuvettes contained solutions of 0.02 ml of H2O2, 0.02 ml of test compound, 0.10 ml of p-NDA and 50 mM NaCl, pH 7.0 to a final volume of 0.98 ml. The oxidation was initiated by the addition of 0.02 ml of Fe^2+ and the bleaching of p-NDA was monitored as the loss in absorbance at 440 nm for 100 sec. To generate concentration curves, serial dilutions of the test compounds were made such that a constant volume of 0.02 ml was added to the reaction mixture. Ethanol itself is an •OH trap, thus controls contained an equal volume of ethanol for any test compound requiring this vehicle. […]

[2] = Sedation after administration in rats; settings: high doses in rats
[3] = 0.75 h, 45 min, TBARS in media, read-out: TBARS IC50
[4] = IC50 for preventing loss of MTT reduction capability, read-out: Viability

What does the source list for `CC1(C)Cc2ccc3ccccc3c2C=[N+]1[O-]` [Compound 10, 3,3-Dimethyl-3,4-dihydrobenzo[h]isoquinoline N-oxide]?
IC50 (cerebellar granule cells; [3]): 104 µM; IC50 (cerebellar granule cells; [4]): 103 µM

Which results are given for `CC1(C)Cc2sccc2C=[N+]1[O-]` [Compound 18, 6,6-Dimethyl-6,7-dihydrothieno[3,2-c]pyridine N-oxide]?
IC50 (cerebellar granule cells; [3]): 2600 µM; IC50 (cerebellar granule cells; [4]): 880 µM

With `CC1(C)Cc2ccoc2C=[N+]1[O-]` [Compound 23, 5,5-Dimethyl-4,5-dihydrofuro[2,3-c]pyridine N-oxide] as the molecule, how does the “OH RADICAL TRAPPING” value [1] read?
Its value is “no effect at 20 mM”.

Which sedation [2] does the source give for `CC1(C)Cc2ccccc2C=[N+]1[O-]` [Compound A, 3,4-dihydro-3,3-dimethylisoquinoline N-oxide, reference compound] here?
Its sedation is “causes sedation”.

And the IC50 (cerebellar granule cells; [3])?
Its IC50 is 307 µM.

And the IC50 (cerebellar granule cells; [4])?
Its IC50 is 292 µM.
